Assay results: US10246469B2, “Biaryl kinase inhibitors” (BRISTOL-MYERS SQUIBB COMPANY, priority 2015, dated 2019)

The compounds below were run against T1, GST-Xa-hAAK1 (Homo sapiens, UniProt Q2M2I8) (assay: AAK1 Kinase Assay). Conditions: bacterially expressed GST-Xa-hAAK1 3.5 nM; ATP 22 μM; fluoresceinated peptide 1.5 μM; 3 hours at room temperature; Caliper LabChip 3000.
T1 construct: GST (N); Factor Xa cleavage site (Xa) (internal); made in house
T1 sequence (Q2M2I8 whole entry): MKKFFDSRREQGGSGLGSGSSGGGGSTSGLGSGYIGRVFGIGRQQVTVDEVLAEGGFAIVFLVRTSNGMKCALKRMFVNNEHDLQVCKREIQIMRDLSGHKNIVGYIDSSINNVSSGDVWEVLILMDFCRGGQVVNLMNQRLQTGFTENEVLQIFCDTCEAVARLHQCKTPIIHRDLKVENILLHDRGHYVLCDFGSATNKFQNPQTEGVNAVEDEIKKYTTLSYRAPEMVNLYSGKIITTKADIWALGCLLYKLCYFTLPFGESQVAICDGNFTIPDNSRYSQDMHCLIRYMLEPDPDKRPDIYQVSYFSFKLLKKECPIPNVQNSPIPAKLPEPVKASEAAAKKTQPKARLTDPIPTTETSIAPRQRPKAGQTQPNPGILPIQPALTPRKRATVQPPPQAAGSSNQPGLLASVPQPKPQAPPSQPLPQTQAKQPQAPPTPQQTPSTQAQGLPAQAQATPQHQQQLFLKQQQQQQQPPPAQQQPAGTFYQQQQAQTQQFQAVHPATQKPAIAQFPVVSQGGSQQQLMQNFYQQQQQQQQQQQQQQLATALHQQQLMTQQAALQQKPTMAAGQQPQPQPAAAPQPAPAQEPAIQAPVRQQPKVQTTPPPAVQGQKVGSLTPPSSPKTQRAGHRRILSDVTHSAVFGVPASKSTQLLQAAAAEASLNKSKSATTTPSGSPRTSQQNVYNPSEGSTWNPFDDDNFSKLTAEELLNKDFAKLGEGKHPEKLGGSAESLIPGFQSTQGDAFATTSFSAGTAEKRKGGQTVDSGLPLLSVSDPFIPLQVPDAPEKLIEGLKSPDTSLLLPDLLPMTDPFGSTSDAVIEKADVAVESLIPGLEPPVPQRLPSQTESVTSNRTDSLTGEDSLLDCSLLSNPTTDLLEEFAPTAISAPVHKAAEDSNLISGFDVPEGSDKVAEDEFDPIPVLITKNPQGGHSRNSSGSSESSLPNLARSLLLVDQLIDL
Format: biochemical
Outline: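 Bacterially expressed GST-Xa-hAAK1 (3.5 nM) phosphorylated 1.5 μM 5-FAM peptide with 22 μM ATP in Tris pH 7.4, MgCl2, DTT, 1.6% DMSO, 3 h at room temperature. EDTA-stopped; product separated electrophoretically on Caliper LabChip. IC50 from eleven concentrations by non-linear regression.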
In the case of `CC(C)C[C@](C)(N)COc1ccc(-c2ccnc(NC(=O)c3cc(C(C)C)[nH]n3)c2)cc1C(F)(F)F` [Example 409, (S)—N-(4-(4-((2-amino-2,4-dimethylpentyl)oxy)-3-(trifluoromethyl)phenyl)pyridin-2-yl)-5-isopropyl-1H-pyrazole-3-carboxamide], the IC50 is reported as 0.7 nM. For `Cc1cc(-c2cnn3cccnc23)ccc1OC[C@@](C)(N)CC(C)C` [Example 333], the IC50 was 99 nM. Work on `Cc1cc(-c2ccnc3ccnn23)cnc1OC[C@](C)(N)CC(C)C` [Example 264, (R)-2,4-dimethyl-1-((3-methyl-5-(pyrazolo[1,5-a]pyrimidin-7-yl)pyridin-2-yl)oxy)pentan-2-amine] yielded an IC50 of 79 nM. `Cc1csc(Nc2nccc(-c3ccc(OC[C@@](C)(N)CC(C)C)c(C)c3)n2)n1` [Example 381, (S)—N-(4-(4-((2-amino-2,4-dimethylpentyl)oxy)-3-methylphenyl)pyrimidin-2-yl)-4-methylthiazol-2-amine] showed an IC50 of 1.5 nM. `CC(C)C[C@](C)(N)COc1ccc(-c2ccnc(NCc3cccnc3)c2)cc1C(F)(F)F` [Example 410, (S)-4-(4-((2-amino-2,4-dimethylpentyl)oxy)-3-(trifluoromethyl)phenyl)-N-(pyridin-3-ylmethyl)pyridin-2-amine] gave an IC50 of 3.6 nM. With `Cc1nc(-c2cnn3cc(C#N)cnc23)ccc1OC[C@@](C)(N)CC(C)C` [Example 478, (S)-3-(5-((2-amino-2,4-dimethylpentyl)oxy)-6-methylpyridin-2-yl)pyrazolo[1,5-a]pyrimidine-6-carbonitrile] the IC50 was 11 nM. Compound `CC(C)C[C@](C)(N)COc1ccc(-c2cc(NC3CCOC3)ncn2)cc1C(F)(F)F` (stereo partly drawn) [Example 448, 6-(4-(((S)-2-amino-2,4-dimethylpentyl)oxy)-3-(trifluoromethyl)phenyl)-N-(tetrahydrofuran-3-yl)pyrimidin-4-amine] has an IC50 of 399 nM. Work on `Cc1nc2nccc(-c3ccc(OC[C@@](C)(N)CC(C)C)c(C#N)c3)c2nc1C` [Example 252, (S)-2-((2-amino-2,4-dimethylpentyl)oxy)-5-(2,3-dimethylpyrido[2,3-b]pyrazin-8-yl)benzonitrile] yielded an IC50 of 285 nM. `CC(C)C[C@](C)(N)COc1ccc(-c2ccnc(NC(=O)CC3CCCC3)c2)cc1C(F)(F)F` [Example 392, (S)—N-(4-(4-((2-amino-2,4-dimethylpentyl)oxy)-3-(trifluoromethyl)phenyl)pyridin-2-yl)-2-cyclopentylacetamide] showed an IC50 of 0.7 nM. Compound `CC(C)C[C@](C)(N)COc1ccc(-c2ccnn3ccnc23)cc1` [Example 281, (S)-1-(4-(imidazo[1,2-b]pyridazin-8-yl)phenoxy)-2,4-dimethylpentan-2-amine] has an IC50 of 3.4 nM. In the case of `CC(C)C[C@](C)(N)COc1ccc(-c2ncnc3c2ccn3C)cc1F` [Example 365, (S)-1-(2-fluoro-4-(7-methyl-7H-pyrrolo [2,3-d]pyrimidin-4-yl)phenoxy)-2,4-dimethylpentan-2-amine], the IC50 is reported as 98 nM. `CC(C)C[C@](C)(N)COc1ccc(-c2ccnc3cc(C(F)(F)F)nn23)cc1F` [Example 335, (S)-1-(2-fluoro-4-(2-(trifluoromethyl)pyrazolo[1,5-a]pyrimidin-7-yl)phenoxy)-2,4-dimethylpentan-2-amine] showed an IC50 of 262 nM. `CC(C)C[C@](C)(N)COc1ccc(-c2ccnc3c2CC(=O)N3)cc1C(F)(F)F` [Example 303, (S)-4-(4-((2-amino-2,4-dimethylpentyl)oxy)-3-(trifluoromethyl)phenyl)-1H-pyrrolo[2,3-b]pyridin-2(3H)-one] was tested, and the IC50 was 0.6 nM. With `Cc1cn2nccc(-c3ccc(OC[C@@](C)(N)CC(C)C)c(C(F)F)n3)c2n1` [Example 453, (S)-1-((2-(difluoromethyl)-6-(2-methylimidazo[1,2-b]pyridazin-8-yl)pyridin-3-yl)oxy)-2,4-dimethylpentan-2-amine] the IC50 was 0.4 nM. Compound `CC(C)C[C@](C)(N)COc1ccc(-c2ccnc3cc(C(F)(F)F)nn23)cc1C#N` [Example 485, (S)-2-((2-amino-2,4-dimethylpentyl)oxy)-5-(2-(trifluoromethyl)pyrazolo[1,5-a]pyrimidin-7-yl)benzonitrile] has an IC50 of 4.5 nM. With `CC(C)C[C@](C)(N)COc1ccc(-c2ccnn3cc(C4CC4)nc23)cc1C#N` [Example 499, (S)-2-((2-amino-2,4-dimethylpentyl)oxy)-5-(2-cyclopropylimidazo[1,2-b]pyridazin-8-yl)benzonitrile] the IC50 was 1.2 nM. `Cc1nc2c(-c3ccc(OC[C@@](C)(N)CC(C)C)c(C(F)(F)F)c3)ccnc2[nH]1` [Example 291, (S)-2,4-dimethyl-1-(4-(2-methyl-3H-imidazo[4,5-b]pyridin-7-yl)-2-(trifluoromethyl)phenoxy)pentan-2-amine] showed an IC50 of 34 nM. Work on `CC(C)C[C@](C)(N)COc1ccc(-c2ccnc(NC3CCOCC3)c2)cc1C#N` [Example 468, (S)-2-(2-amino-2,4-dimethylpentyloxy)-5-(2-(tetrahydro-2H-pyran-4-ylamino)pyridin-4yl)benzonitrile] yielded an IC50 of 54 nM. `CC(C)C[C@](C)(N)COc1ccc(-c2ccnc3c2C(=O)N(C)C3)cc1F` [Example 413, (S)-4-(4-((2-amino-2,4-dimethylpentyl)oxy)-3-fluorophenyl)-6-methyl-6,7-dihydro-5H-pyrrolo [3,4-b]pyridin-5-one] was tested, and the IC50 was 765 nM. Work on `CC(C)C[C@](C)(N)COc1ccc(-c2ccnc(NC(=O)CCC3CCCC3)c2)cc1C(F)(F)F` [Example 393, (S)—N-(4-(4-((2-amino-2,4-dimethylpentyl)oxy)-3-(trifluoromethyl)phenyl)pyridin-2-yl)-3-cyclopentylpropanamide] yielded an IC50 of 7.3 nM. Work on `CC(C)C[C@](C)(N)COc1ccc(-c2ccnc3c2cnn3C)cc1F` [Example 289, (5)-1-(2-fluoro-4-(1-methyl-1H-pyrazolo[3,4-b]pyridin-4-yl)phenoxy)-2,4-dimethylpentan-2-amine] yielded an IC50 of 58 nM. `Cc1cn2nccc(-c3ccc(OC[C@@](C)(N)CC(C)C)c(C)n3)c2n1` [Example 452, (S)-2,4-dimethyl-1-((2-methyl-6-(2-methylimidazo[1,2-b]pyridazin-8-yl)pyridin-3-yl)oxy)pentan-2-amine] gave an IC50 of 11 nM. With `CC(=O)Nc1cc(-c2ccc(OC[C@@](C)(N)CC(C)C)c(F)c2)n2nccc2n1` [Example 463, (S)—N-(7-(4-((2-amino-2,4-dimethylpentyl)oxy)-3-fluorophenyl)pyrazolo [1,5-a]pyrimidin-5-yl) acetamide] the IC50 was 184 nM. `Cc1nc2c(-c3ccc(OC[C@@](C)(N)CC(C)C)c(C#N)c3)ccnc2[nH]1` [Example 293, (S)-2-((2-amino-2,4-dimethylpentyl)oxy)-5-(2-methyl-3H-imidazo[4,5-b]pyridin-7-yl)benzonitrile] showed an IC50 of 14 nM. `CC(C)C[C@](C)(N)COc1ccc(-c2ccnc(NC3CCCOC3)c2)cc1C(F)(F)F` (mixture of isomers) [Example 475, 4-(4-((S)-2-amino-2,4-dimethylpentyloxy)-3-(trifluoromethyl)phenyl)-N-(tetrahydro-2H-pyran-3-yl)pyridin-2-amine] gave an IC50 of 15 nM. Work on `CC(C)C[C@](C)(N)COc1ccc(-c2ccnc(NC(=O)CC3CCCCC3)c2)cc1C(F)(F)F` [Example 394, (S)—N-(4-(4-((2-amino-2,4-dimethylpentyl)oxy)-3-(trifluoromethyl)phenyl)pyridin-2-yl)-2-cyclohexylacetamide] yielded an IC50 of 2 nM. Compound `CC(C)C[C@](C)(N)COc1cc(F)c(-c2ccnc3ccnn23)cc1F` [Example 489, (S)-1-(2,5-difluoro-4-(pyrazolo[1,5-a]pyrimidin-7-yl)phenoxy)-2,4-dimethylpentan-2-amine] has an IC50 of 278 nM. For `Cc1cc(-c2ccc(OC[C@@](C)(N)CC(C)C)c3ncsc23)ccn1` [Example 267, (S)-2,4-dimethyl-1-((7-(2-methylpyridin-4-yl)benzo[d]thiazol-4-yl)oxy)pentan-2-amine], the IC50 was 362 nM. `CC(C)C[C@](C)(N)COc1ccc(-c2cc(Cl)nn3cc(C4CC4)nc23)cc1C#N` [Example 494, (5)-2-((2-amino-2,4-dimethylpentyl)oxy)-5-(6-chloro-2-cyclopropylimidazo[1,2-b]pyridazin-8-yl)benzonitrile] was tested, and the IC50 was 222 nM. Compound `Cc1nccc(-c2ccc(OCC(C)(C)N)c(C)n2)n1` [Example 321, 2-methyl-1-((2-methyl-6-(2-methylpyrimidin-4-yl)pyridin-3-yl)oxy)propan-2-amine] has an IC50 of 162 nM. For `CC(C)C[C@](C)(N)COc1ccc(-c2ccnc3ccnn23)cc1C#N` [Example 460, (S)-2-((2-amino-2,4-dimethylpentyl)oxy)-5-(pyrazolo[1,5-a]pyrimidin-7-yl)benzonitrile], the IC50 was 0.6 nM. `CC(C)C[C@](C)(N)COc1ccc(-c2ccnc3[nH]ncc23)cc1C(F)(F)F` [Example 292, (S)-1-(4-(1H-pyrazolo[3,4-b]pyridin-4-yl)-2-(trifluoromethyl)phenoxy)-2,4-dimethylpentan-2-amine] showed an IC50 of 0.4 nM. For `CC(C)C[C@](C)(N)COc1ccc(-c2ccnc(NCc3ccco3)c2)cc1C(F)(F)F` [Example 411, (S)-4-(4-((2-amino-2,4-dimethylpentyl)oxy)-3-(trifluoromethyl)phenyl)-N-(furan-2-ylmethyl)pyridin-2-amine], the IC50 was 1.1 nM. Compound `CC(C)C[C@](C)(N)COc1ccc(-c2ccnc3c2C(=O)NC3)cc1Cl` [Example 417, (S)-4-(4-((2-amino-2,4-dimethylpentyl)oxy)-3-chlorophenyl)-6,7-dihydro-5H-pyrrolo[3,4-b]pyridin-5-one] has an IC50 of 3.6 nM. With `Cc1nc2c(-c3ccc(OC[C@@](C)(N)CC(C)C)c(C(F)(F)F)c3)ncnc2s1` [Example 270, (S)-2,4-dimethyl-1-(4-(2-methylthiazolo[5,4-d]pyrimidin-7-yl)-2-(trifluoromethyl)phenoxy)pentan-2-amine] the IC50 was 8.4 nM. `CC(C)C[C@](C)(N)COc1ccc(-c2ccnn3cc(C(F)(F)F)nc23)cc1` [Example 501, (S)-2,4-dimethyl-1-(4-(2-(trifluoromethyl)imidazo[1,2-b]pyridazin-8-yl)phenoxy)pentan-2-amine] showed an IC50 of 69 nM.
